Data from US7745436B2, “Disalt inhibitors of IL-12 production” (Synta Pharmaceuticals Corporation, priority 2004, dated 2010).

Tests used:
[1] = Solubility determination in water (vortex, sonication at ~50° C, HPLC of supernatant); assay type: physicochemical; settings: for Solubility: water, vortexed and sonicated ~5-10 min at ~50° C, HPLC
Procedure: The disalts described herein can have a relatively high solubility, e.g., water solubility. As used herein, the “solubility” of a disalt in a solvent refers to the maximum mass of a disalt that can be dissolved per unit volume of the solvent under accelerated dissolution conditions (50-60° C. with concommitant ultrasonic agitation of the disalt/solvent test sample). Unless otherwise indicated, solubility data is expressed in terms of units of milligrams (mg)/milliliter (mL), e.g., mg/mL.
The compound was weighed, and water was added to it such that the ratio of the sample and water of the mixture would be 100 mg/mL. The mixture was then shaken using a Vortex-Genie2 shaker (vortexed) and sonicated (˜5-10 min at ˜50° C). If a clear solution has been obtained, more compound was added to the solution, and a mixture was vortexed and sonicated until a homogeneous suspension was achieved. The suspension was then centrifuged at 10,000 rpm for about 10 min. The supernatant was taken out and diluted with 50/50 (v/v) EtOH/water, then the sample was analyzed by HPLC to determine the concentration.
The HPLC system consisted of the HP 1100 Model (Agilent, Wilmington, Del.) equipped with a model 1100 quaternary pump, a model 1100 autosampler, a model 1100 Diode-Array Detector for UV detection at 320 nm. The HPLC analysis was performed using an isocratic mobile phase consisting of acetonitrile-water containing 10 mM NH4OAc . Mobile phases were degassed and filtered through a solvent filtration apparatus and pumped at a constant rate of 1.0 mL/min. The separation was made on an XTerra MS C18 analytical column, 4.6 mm i.d.×150 mm, (Waters Corp., Milford, Mass., USA) fitted with a precolumn filter (XTerra MS C18, 3.9 mm×20mm). The column was maintained at 30° C. Data acquisition and instrument setting were controlled using HP Chemstation software (ver.8.03).

[2] = Solubility in water at fixed concentrations (5 mg per 0.1, 0.2 or 0.25 mL); assay type: physicochemical

Structure (SMILES) | melting point | Solubility [1] | further results
Cc1cccc(C=NNc2nc(OCCc3ccccn3)nc(N3CCOCC3)n2)c1 | 143 to 147 °C |  | 
CN(N=Cc1c[nH]c2ccccc12)c1cc(N2CCOCC2)nc(OCCc2ccccn2)n1 | 130 to 140 °C |  | 
CS(=O)(=O)O.CS(=O)(=O)O.Cc1cccc(C=NNc2cc(N3CCOCC3)nc(OCCc3ccccn3)n2)c1 [{[(1)(2H^+)]^2+•[2(CH3SO3^−)]^2−}, N-(3-Methyl-benzylidene)-N′-[6-morpholin-4-yl-2-(2-pyridin-2-yl-ethoxy)-pyrimidin-4-yl]-hydrazine (1) dimethanesulfonate (dimesylate)] |  | 831 ± 5 mg/mL | solubility of disalt relative to the solubility of the corresponding monosalt ([1]; versus monosalt {[(1)(1H^+)]^1+.[1(CH3SO3^−)]}): more than ten times greater
Cc1cccc(C=NNc2cc(N3CCOCC3)nc(OCCc3ccccn3)n2)c1.Cl.Cl [{[(1)(2H^+)]^2+•[2(Cl^−)]^2−}, N-(3-Methyl-benzylidene)-N′-[6-morpholin-4-yl-2-(2-pyridin-2-yl-ethoxy)-pyrimidin-4-yl]-hydrazine (1) dihydrogenchloride (dichloride)] |  | 213 ± 5 mg/mL | solubility in water at a concentration of 5 mg/0.1 mL [2]: soluble
C(=NNc1cc(N2CCOCC2)nc(OCCc2ccccn2)n1)c1c[nH]c2ccccc12 | 160 to 165 °C |  | 
Cc1cccc(C=NNc2cc(N3CCOCC3)nc(OCCc3ccccn3)n2)c1.Cl [{[(1)(2H^+)]^1+•[1(Cl^−)]^1−}, N-(3 -Methyl-benzylidene)-N′-[6-morpholin-4-yl-2-(2-pyridin-2-yl-ethoxy)-pyrimidin-4-yl]-hydrazine (1) hydrochloride] |  | 12.6 ± 0.4 mg/mL | 
CS(=O)(=O)O.Cc1cccc(C=NNc2cc(N3CCOCC3)nc(OCCc3ccccn3)n2)c1 [{[(1)(1H^+)]^1+•[1(CH3SO3^−)]^1−}, N-(3-Methyl-benzylidene)-N′-[6-morpholin-4-yl-2-(2-pyridin-2-yl-ethoxy)-pyrimidin-4-yl]-hydrazine 1 methanesulfonate (mesylate)] |  | 52.0 ± 0.1 mg/mL | 
C(=NNc1nc(OCCc2ccccn2)nc(N2CCOCC2)n1)c1c[nH]c2ccccc12 | 158 to 161 °C |  | 
CN(N=Cc1c[nH]c2ccccc12)c1cc(N2CCOCC2)nc(OCCc2ccccn2)n1.CS(=O)(=O)O.CS(=O)(=O)O [{[(3)(2H^+)]^2+•[2(CH3SO3^−)]^2−}, N′-(1H-indol-3-ylmethylene)-N-methyl-N-[6-morpholin-4-yl-2-(2-pyridin-2-yl-ethoxy)-pyrimidin-4-yl]-hydrazine (3) dimesylate] |  | 306 ± 14 mg/mL | 
C(=NNc1cc(N2CCOCC2)nc(OCCc2ccccn2)n1)c1c[nH]c2ccccc12.CS(=O)(=O)O.CS(=O)(=O)O [{[(2)(2H^+)]^2+•[2(CH3SO3^−)]^2−}, N-(1H-indol-3-ylmethylene)—N′-[6-morpholin-4-yl-2-(2-pyridin-2-yl-ethoxy)-pyrimidin-4-yl]-hydrazine (2) dimethanesulfonate (dimesylate)] |  | 454 ± 5 mg/mL | 
Cc1cccc(C=NNc2cc(N3CCOCC3)nc(OCCc3ccccn3)n2)c1.O=[N+]([O-])O.O=[N+]([O-])O [{[(1)(2H^+)]^2+•[2(NO3^−)]^2−}, N-(3-Methyl-benzylidene)-N′-[6-morpholin-4-yl-2-(2-pyridin-2-yl-ethoxy)-pyrimidin-4-yl]-hydrazine (1) dinitrate] |  | 83.4 ± 0.2 mg/mL | solubility in water at a concentration of 5 mg/0.1 mL [2]: insoluble; solubility in water at a concentration of 5 mg/0.2 mL ([2]; 5 mg/0.2 mL): partially soluble; solubility in water at a concentration of 5 mg/0.25 mL ([2]; 5 mg/0.25 mL): partially soluble
